Experimental data as given in patent US20140186872A1, “BISACODYL AND ITS ANALOGUES AS DRUGS FOR USE IN THE TREATMENT OF CANCER” (CENTRE NATIONAL DE LA RECHERCHE SCIENTIFIQUE- CNRS, priority 2011, published 2014).
Where two headings read alike, the source gives them in different places. Values belong to the compound of their own block, whether it stands above or below them.

Legend:
[1] = tested on: proliferating TG1 glioblastoma stem cells; experiment: ATP-Glo (Cell Titer Glo) cell viability, dose/response, proliferating TG1 cells; type: cell-based, human; conditions: for effect on survival of proliferating TG1 cells: own culture medium
Procedure: The TG1 proliferating cells correspond to cells for which medium is renewed regularly, twice weekly.
The proliferating cells were put back in 1 mL of fresh NS34 medium, dissociated mechanically by pipetting up and down 100 times with a P1000 micropipette preset to 400 μl and counted with Trypan Blue, after dilution in fresh NS34 medium, to obtain a final suspension of 6×10^5 cells/mL.
(§1) 50 μl of solution containing cells was deposited per well in a 96-well plate (Greiner #655090).
(§2) The test compounds, in solution of 100% of DMSO were diluted in culture medium: in the absence of DMSO (medium 0% DMSO) or in the presence of 2% of DMSO (medium 2% DMSO) at concentrations of 200 μM, 100 μM, 80 μM, 60 μM, 40 μM, 20 μM, 10 μM and 2 μM. For all these dilutions the final concentration in DMSO was 2% (see Table 1 below; volumes shown make it possible to construct dose/response curves, in triplicate, for 1 compound on a 96-well plate—FIG. 1)
50 μL of solution of compound was added at the concentrations specified above to 50 μL of cells in the plate (FIG. 1) (Final concentration of compounds in contact with the cells: 100 μM, 50 μM, 40 μM, 30 μM, 20 μM, 10 μM, 5 μM, 1 μM (in 1% of final DMSO). Final concentration of positive control: 50 μM in 1% of final DMSO. Final concentration of negative control: 1% final DMSO). […]
(§3) The test of cell viability was carried out using the Cell Titer Glo kit (Promega #G7571). After thawing of the Cell Titer Glo reagent (1 Buffer vial+1 Substrate vial per plate) protected from the light, the contents of the Buffer vial were transferred to the Substrate vial. 100 μl of Cell Titer Glo reagent was deposited on the cells treated with the compounds.
(§4) The results, which were given for each well in strokes per second (sps), were converted to percentage cell survival relative to the control 1% of DMSO, which was fixed at 100%.
(§5) The EC50 was determined as the concentration that gives 50% of the response.
(§6) Glioblastoma (WHO grade IV glioma) stem cells (TG1, TG16 and OB1) were derived from tumor samples of 3 patients at Sainte Anne Hospital (Paris, France), as previously described (48) and expanded as neurosphere cultures. In continuously proliferating cultures, neurospheres were mechanically dissociated into a single-cell suspension twice a week with 90% renewal of their culture medium. Quiescent glioblastoma stem cells were obtained by non-renewal of the culture medium for 9-16 days following cell seeding. The non-proliferating state was assessed by decreased ability of the cells to incorporate EdU (5-ethynyl-2′-deoxyuridine) using the Click-iT™ EdU Flow Cytometry Assay Kit (Invitrogen, France) according to the manufacturer's instructions. […]
(§7) Confirmed hit compounds from the primary and secondary screens were purchased from Prestwick Chemical and dissolved in DMSO to obtain 10 mM concentrated stock solutions. Hit compound validation was obtained through dose-response curves on the viability of TG1 glioblastoma stem cells under the same experimental conditions (cell density, treatment duration) as described for the primary and secondary screens. Each compound was tested in triplicate in at least three independent experiments on proliferating and quiescent glioblastoma stem TG1 cells.
(§8) The EC50 value was determined for each compound by fitting the data points according to the following equation: […]
(§9) where y represents the expected response (expressed as a percentage of cell viability), x is the chemical compound concentration, Smax and Smin are the maximum and minimum viability responses recorded, respectively, and n is the Hill coefficient. Curve fitting was performed using the Microsoft Excel Solver component.

[2] = tested on: U-87 MG glioblastoma cell line; experiment: ATP-Glo cell viability on U-87 MG cells; conditions: for cytotoxic effect on U-87 MG cells: 24 h
Procedure: (§10) The cells were passed 2 or 3 days before the experiment. On that very day, the cells are detached with trypsin according to the above protocol, then centrifuged for 10 minutes at 800 rpm.
(§11) The supernatant was removed and the cells were resuspended in culture medium, then counted and finally diluted to give a final suspension of 10^6 cells/mL.
(§12) 7 mL of cellular suspension at 10^6 cells/mL was prepared for each test compound.
The glioblastoma U-87 MG cell line was purchased from ATCC and expanded in Eagle's Minimum Essential Medium (EMEM) (ATCC) supplemented with 10% fetal bovine serum (FBS) (Invitrogen, France) and 1% penicillin/streptomycin (Invitrogen, France).
The pH of the medium solution was then adjusted to values varying between 7.4 and 6.0 with 1M HCl or a sodium acetate buffer (0.1 M pH=4). The culture media were placed in a CO2 cell culture incubator settled to 5% CO2 and 37° C. for 1 hour. The pH was measured again and re-adjusted to the expected values if necessary and culture media were filter-sterilized (0.22 μm filter) prior to their use. The toxicity of DDPM (10 or 100 μM) on proliferating and quiescent TG1 cells was then assessed under the same conditions as those described in the previous section. pH dependency of lead compounds was also assessed for the glioblastoma U-87 MG cell line and on normal fetal neural stem cells and primary human astrocytes in their respective culture media (adjusted to pH 7.4 or 6.2) with HCl (1M) or a sodium acetate buffer (0.1 M pH=4).

[3] = tested on: quiescent TG1 glioblastoma stem cells; experiment: ATP-Glo (Cell Titer Glo) cell viability, dose/response, quiescent TG1 cells; type: cell-based, human; conditions: for cytotoxicity to quiescent TG1 cells: 10 μM; for cytotoxicity to quiescent TG1 cells / EC50 / effect on survival of quiescent TG1 cells (words): 24 h; for EC50: Homo sapiens, quiescent TG1 cells, ATP-Glo, read-out: concentration leading to 50% of effect (EC50); for effect on survival of quiescent TG1 cells (words): own conditioned medium
Procedure: The TG1 cells were put into quiescence by keeping the cells in culture without changing the medium from 9 to 16 days. The state of quiescence was verified by non-incorporation of nucleotides into the DNA of the cells (see example 9).
The quiescent cells were put back in 1 mL of conditioned medium, dissociated mechanically by pipetting up and down 100 times with a P1000 micropipette preset to 400 μl and counted with Trypan Blue, after dilution in conditioned medium, to obtain a final suspension of 8.10^5 cells/mL.
as §1, §2
50 μL of solution of compound was added at the concentrations specified above to 50 μL of cells in the plate (FIG. 1) (Final concentration of compounds in contact with the cells: 100 μM, 50 μM, 40 μM, 30 μM, 20 μM, 10 μM, 5 μM, 1 μM (in 1% of final DMSO). Final concentration of positive control: 50 μM in 1% of final DMSO. Final concentration of negative control: 1% final DMSO).
The cells were incubated for 23 to 24 hours at 37° C. in an incubator in the presence of 5% CO2 (under humid atmosphere at 95% provided by a reservoir filled with distilled water).
as §3, §4, §5, §6, §7, §8, §9

[4] = tested on: human primary astrocytes (HA cells); experiment: ATP-Glo cell viability on human astrocytes; type: cell-based
Text: Primary human astrocytes (HA cells) were expanded in AM Medium (both from ScienCell Research Laboratories, Carlsbad Calif.) according to the manufacturer's instructions.

[5] = tested on: quiescent TG1 glioblastoma stem cells; experiment: ATP-Glo (Cell Titer Glo) cell viability, dose/response, quiescent TG1 cells; type: cell-based, human; conditions: treated 24 h in freshly prepared non-conditioned medium, versus own medium
[6] = tested on: caspase 3/7 activity in proliferating and quiescent TG1 cells; experiment: Apo-ONE Homogeneous Caspase-3/7 Assay in TG1 cells; type: cell-based, human
Procedure: Proliferating (30 000 cells/well) and quiescent (40 000 cells/well) TG1 cells were suspended in freshly prepared culture medium (pH=7.3) or acidified freshly prepared culture medium (pH=6.4) and treated with increasing concentrations of the lead compounds for 24 hours. Following treatment, apoptosis was measured with the Apo-ONE Homogeneous Caspase-3/7 Assay from Promega according to the manufacturer's instructions. Staurosporine (Sigma, Aldrich) and culture medium were used as positive and negative controls, respectively.

[7] = Stability of the test compounds in the culture medium (HPLC); type: physicochemical; conditions: for half-life at 10 μM: 1% DMSO, 37° C., HPLC
Procedure: A mass m was weighed with an analytical balance and a volume V of DMSO was added.
The solution of the compound at 10 mM was diluted to 1/10, still in DMSO.
The latter solution was diluted to 1/100 in medium in order to obtain a final concentration of 10 μM and 1% of DMSO.
After homogenizing (2 min), 150 μl was taken and was mixed with 150 μl of acetonitrile to precipitate the proteins present in the medium, which corresponds to a dilution to ½.
The mixture was vortexed for 1 min and then centrifuged for 10 min at 15000 g.
The supernatant was again diluted to ½ with 1 volume of milliQ water and then injected in HPLC.
The same treatment was carried out at times 2 h, 4 h, 6 h and 24 h.
The solutions were analysed in HPLC using a Gilson chain equipped with a diode array detector and of an automatic injector with an injection loop of 20 μl.
10 μM solutions of Bisacodyl and DDPM were prepared in proliferating or quiescent glioblastoma stem cell culture medium in the presence of 1% DMSO. Following protein precipitation (with acetonitrile), samples were analyzed by HPLC after 0, 2, 4, 6 and 24 h of incubation at 37° C.

[8] = tested on: human fetal neural stem cells (f-NSC cells); experiment: ATP-Glo cell viability on fetal neural stem cells; type: cell-based
HEK293 cells = experiment: ATP-Glo cell viability on HEK 293 cells
Procedure: as §10, §11, §12
Human Embryonic Kidney 293 cells (HEK 293 cells) were expanded in Minimum Essential Medium (MEM) with 2 mM L-Glutamine, 100 UI/ml-100 μg/ml Penicillin/Streptomycin and 10% FBS.

[9] = 100 μM, acidification with sodium acetate buffer, versus HCl

- EC50 [3]: ~1000 nM
SMILES: Oc1ccc(C(c2ccc(O)cc2)c2ccccn2)cc1 [Compound 2, 4,4′-(Pyridin-2-ylmethylene)diphenol]
- survival of proliferating TG1 cells ([1]; 10 μM, 24 h, acidic medium (HCl)): also decreased
- effect on proliferating TG1 cells [1, 9]: more pronounced
- survival of TG1 glioblastoma cancer stem cells (ATP level) ([1]; NS34 medium pH 7.35 or 6.2, 24 or 72 h, Example 13): decreases the survival
- effect on survival of proliferating TG1 cells ([1]; 24 h): a little more marked
- effect on survival of proliferating TG1 cells ([1]; 24 h, listed as DDPM): minor effect
- cytotoxic activity on proliferating TG1 cells after media exchange ([1]; treated 24 h in conditioned quiescent cell medium, versus own medium): more pronounced cytotoxic activity
- percentage of U-87 cell death ([2]; acidic pH adjusted with sodium acetate buffer, versus HCl): even higher
- cytotoxic effect on U-87 MG cells ([2]; pH 6.2 set with 1M HCl, versus physiological pH): significantly higher
- cytotoxic effect on U-87 MG cells ([2]; physiological pH): no cytotoxic effect
- cytotoxicity to quiescent TG1 cells ([3]; pH values above 7): little or no effect
- cytotoxicity to quiescent TG1 cells ([3]; slightly acidic conditions (HCl)): cytotoxic
- effect on quiescent TG1 cells [3, 9]: more pronounced
- effect on survival of quiescent TG1 cells (words) [3]: effect comparable to bisacodyl
- effect on survival of quiescent TG1 cells (words) ([3]; listed as DDPM): high cytotoxicity
- effect on ATP levels of human astrocytes ([4]; pH 7.4 versus 6.2, related to cell death): pH dependent reduction of ATP levels
- effect on quiescent TG1 cells after media exchange [5]: significantly reduced
- caspase 3/7 activity ([6]; pH 6.4, 24 h, proliferating and quiescent TG1 cells): stimulates caspase 3/7 activity in a dose-dependent manner
- pro-apoptotic effect (caspase 3/7 activity) ([6]; physiological pH (pH 7.3), 24 h): not observed
- change in concentration in the culture media (stability) ([7]; proliferating and quiescent culture medium, up to 24 h): No change

- EC50 [3]: 1000 nM
- half-life at 10 μM ([7]; quiescent glioblastoma stem cell culture medium (no cells), read-out: half-life in the medium of the quiescent cells (converted)): 4 h
SMILES: CC(=O)Oc1ccc(C(c2ccc(OC(C)=O)cc2)c2ccccn2)cc1 [Compound 1, Bisacodyl]
- effect on survival of proliferating TG1 cells ([1]; 24 h): not on TG1 cells proliferating continuously
- survival of U-87 MG cells ([2]; concentrations between 10 and 100 μM): 90%
- effect on survival of quiescent TG1 cells (words) ([3]; listed as Bisacodyl): only active on TG1 cells in quiescence
- effect on survival of quiescent TG1 cells (words) ([3]; listed as bisacodyl): more selective effects
- effect on survival / toxicity, f-NSC cells [8]: does not display any toxicity
- cell survival of f-NSC cells ([8]; concentrations of compound up to 100 μM): over 90%
- toxicity for HEK293 cells (HEK293 cells): does not display any toxicity
- survival of HEK293 cells (HEK293 cells; 10 μM): 100%
- survival of HEK293 cells (HEK293 cells; 100 μM): 80%
- toxicity for HA cells [4]: does not display any toxicity
- Emax ([4]; Homo sapiens, Astrocyte, not due to cell death, read-out: maximum effect on HA cells: reduction of ATP levels): 30%
- survival of human astrocytes (HA) ([4]; concentrations above 10 μM): 60%
- half-life at 10 μM ([7]; read-out: half-life in the medium of the proliferating cells (converted)): 2 h
